Laboratory results taken from patent US12350270B2, “Antimalarial agents” (Merck Sharp & Dohme LLC, priority 2019, dated 2025).

Each compound was assayed on parasites (ring stage, in human red blood cell culture) (assay: Parasite LDH growth assay (antiparasite potency, Parasite Assay)). Conditions: 0.7% rings, 2% haematocrit, 72 hours at 37° C., LDH readout of parasite growth.
Assay type: cell-based, Plasmodium falciparum
Description: Assessing Antiparasite Potency in a Parasite LDH Growth Assay (Parasite Assay)
The parasite stock was maintained at 4% haematocrit in RPMI-Hepes media buffered with sodium bicarbonate and supplemented with 5% heat inactivated human serum and 0.5% albumax.
On the day of assay set up, a blood smear of the parasite culture was Giemsa stained and counted. The parasitemia was adjusted to 0.7% rings and the haematocrit was diluted to 2% in RPMI-Hepes media buffered with sodium bicarbonate and supplemented with 5% heat inactivated human serum and 0.5% albumax. 30 ul of diluted parasites are then added into 10 ul of media+compound in pre-prepared Greiner TC assay plates. Parasite assay plates were placed in gassed humidified boxes in single layer and allowed to incubate at 37° C. for 72 hours. After 72 hours growth, assay plates are sealed with parafilm and frozen flat, in single file at −80° C. overnight. On the following day, assay plates are allowed to thaw at room temperature for 4 hours to which an LDH assay is performed to measure parasite growth.

| SMILES | EC50 [nM] |
| --- | --- |
| CCC1(CC)CC(=O)N([C@@H]2CCOc3ccc(C(=O)NC4c5ccccc5OC4(C)C)cc32)C(=N)N1 (single isomer, unassigned) [Example 133A] | 1.4 |
| CCC1(CC)CC(=O)N([C@@H]2CCOc3ccc(C(=O)NC4c5ccccc5OC4(C)C)cc32)C(=N)N1 (single isomer, unassigned) [Example 133B] | 17 |
| CCC1(CC)CC(=O)N([C@@H]2CCOc3ccc(C(=O)NC4c5ccccc5OC4(C)CO)cc32)C(=N)N1 (single isomer, unassigned) [Example 176A] | 29.2 |
| CCC1(CC)CC(=O)N([C@@H]2CCOc3ccc(C(=O)NC4c5ccccc5OC4(C)CO)cc32)C(=N)N1 (single isomer, unassigned) [Example 176C] | 2.4 |
| CCC1(CC)CC(=O)N([C@@H]2CCOc3ccc(C(=O)NC4c5ccccc5OC4(C)CO)cc32)C(=N)N1 (single isomer, unassigned) [Example 176D] | 114 |
| CCC1(CC)CC(=O)N(C2c3cc(C(=O)N[C@@H]4c5ccccc5C[C@H]4O)ccc3OC2(C)CO)C(=N)N1 (single isomer, unassigned) [Example 178A] | 108 |
| CCC1(CC)CC(=O)N(C2c3cc(C(=O)N[C@@H]4c5ccccc5C[C@H]4O)ccc3OC2(C)CO)C(=N)N1 (single isomer, unassigned) [Example 178B] | 2.2 |
| CC[C@]1(C)CC(=O)N(C2CC(C)Oc3ccc(C(=O)N[C@@H]4c5ccccc5OC[C@@]4(C)O)cc32)C(=N)N1 (single isomer, unassigned) [Example 181A] | 189 |
| CC[C@]1(C)CC(=O)N(C2CC(C)Oc3ccc(C(=O)N[C@@H]4c5ccccc5OC[C@@]4(C)O)cc32)C(=N)N1 (single isomer, unassigned) [Example 181B] | 7.9 |
| CC[C@]1(C)CC(=O)N([C@@H]2CCOc3ccc(C(=O)NC4c5cc(F)ccc5OCC4(C)O)cc32)C(=N)N1 (single isomer, unassigned) [Example 190A] | 261 |
| CC[C@]1(C)CC(=O)N([C@@H]2CCOc3ccc(C(=O)NC4c5cc(F)ccc5OCC4(C)O)cc32)C(=N)N1 (single isomer, unassigned) [Example 190B] | 2.6 |
| CC[C@]1(C)CC(=O)N([C@@H]2CCOc3ccc(C(=O)NC4c5cc(F)ccc5OCC4(C)O)cc32)C(=N)N1 (single isomer, unassigned) [Example 190C] | 4.9 |
| CC[C@]1(C)CC(=O)N([C@@H]2CCOc3ccc(C(=O)NC4c5c(F)cccc5OCC4(C)O)cc32)C(=N)N1 (single isomer, unassigned) [Example 193A] | 96.4 |
| CC[C@]1(C)CC(=O)N([C@@H]2CCOc3ccc(C(=O)NC4c5c(F)cccc5OCC4(C)O)cc32)C(=N)N1 (single isomer, unassigned) [Example 193B] | 0.8 |
| CC[C@]1(C)CC(=O)N([C@@H]2CCOc3ccc(C(=O)NC4c5c(F)cccc5OCC4(C)O)cc32)C(=N)N1 (single isomer, unassigned) [Example 193C] | 19.5 |
| COCC1(C)Oc2ccc(C(=O)N[C@H]3CC(C)(C)Oc4ccccc43)cc2C1N1C(=N)NC(C)(C)CC1=O (single isomer, unassigned) [Example 214A] | 8.2 |
| COCC1(C)Oc2ccc(C(=O)N[C@H]3CC(C)(C)Oc4ccccc43)cc2C1N1C(=N)NC(C)(C)CC1=O (single isomer, unassigned) [Example 214B] | 260 |
| CCC1(CC)CC(=O)N([C@@H]2CCOc3ccc(C(=O)NC4c5cc(F)ccc5OCC4(C)O)cc32)C(=N)N1 (single isomer, unassigned) [Example 226A] | 2.6 |
| CCC1(CC)CC(=O)N([C@@H]2CCOc3ccc(C(=O)NC4c5cc(F)ccc5OCC4(C)O)cc32)C(=N)N1 (single isomer, unassigned) [Example 226B] | 69 |

| SMILES | EC50 [nM] |
| --- | --- |
| CCC1(CC)CC(=O)N([C@@H]2CCOc3ccc(C(=O)NC4c5cc(F)ccc5OCC4(C)O)cc32)C(=N)N1 (single isomer, unassigned) [Example 226C] | 273 |
| CCC1(CC)CC(=O)N([C@@H]2CCOc3ccc(C(=O)NC4c5cc(F)ccc5OCC4(C)O)cc32)C(=N)N1 (single isomer, unassigned) [Example 226D] | 1 |
| CC1(C)CC(=O)N([C@@H]2CCOc3ccc(C(=O)NC4c5ccccc5OCC4(O)C(F)(F)F)cc32)C(=N)N1 (single isomer, unassigned) [Example 234A] | 22.5 |
| CC1(C)CC(=O)N([C@@H]2CCOc3ccc(C(=O)NC4c5ccccc5OCC4(O)C(F)(F)F)cc32)C(=N)N1 (single isomer, unassigned) [Example 234B] | 3.9 |
| CC1(C)CC(=O)N([C@@H]2CCOc3ccc(C(=O)NC4c5ccccc5OCC4(O)C(F)(F)F)cc32)C(=N)N1 (single isomer, unassigned) [Example 234C] | 43.2 |
| CCC1(CC)CC(=O)N([C@@H]2CCOc3ccc(C(=O)NC4c5ccccc5OC(C)(C)C4(C)O)cc32)C(=N)N1 (single isomer, unassigned) [Example 242A] | 0.6 |
| CCC1(CC)CC(=O)N([C@@H]2CCOc3ccc(C(=O)NC4c5ccccc5OC(C)(C)C4(C)O)cc32)C(=N)N1 (single isomer, unassigned) [Example 242B] | 10.5 |
| CCC1(CC)CC(=O)N(C2c3cc(C(=O)N[C@@H]4c5ccccc5OC(C)(C)[C@H]4O)ccc3CC2OC)C(=N)N1 (single isomer, unassigned) [Example 251A] | 0.4 |
| CCC1(CC)CC(=O)N(C2c3cc(C(=O)N[C@@H]4c5ccccc5OC(C)(C)[C@H]4O)ccc3CC2OC)C(=N)N1 (single isomer, unassigned) [Example 251B] | 1.5 |
| CCC1(CC)CC(=O)N(C2c3cc(C(=O)N[C@@H]4c5ccccc5OC(C)(C)[C@H]4O)ccc3CC2OC)C(=N)N1 (single isomer, unassigned) [Example 251C] | 84.4 |
| CCC1(CC)CC(=O)N([C@@H]2CCOc3ccc(C(=O)NC4c5ccc(OC)cc5OCC4(C)O)cc32)C(=N)N1 (single isomer, unassigned) [Example 258A] | 85.9 |
| CCC1(CC)CC(=O)N([C@@H]2CCOc3ccc(C(=O)NC4c5ccc(OC)cc5OCC4(C)O)cc32)C(=N)N1 (single isomer, unassigned) [Example 258B] | 2.4 |
| CCC1(CC)CC(=O)N([C@@H]2CCOc3ccc(C(=O)NC4c5ccc(OC)cc5OCC4(C)O)cc32)C(=N)N1 (single isomer, unassigned) [Example 258C] | 226 |
| CCC1(CC)CC(=O)N([C@@H]2CCOc3ccc(C(=O)NC4c5ccc(OC)cc5OCC4(C)O)cc32)C(=N)N1 (single isomer, unassigned) [Example 258D] | 6.7 |
| CCC1(CC)CC(=O)N([C@@H]2CCOc3ccc(C(=O)NC4c5c(OC)cccc5OCC4(C)O)cc32)C(=N)N1 (single isomer, unassigned) [Example 259A] | 5.5 |
| CCC1(CC)CC(=O)N([C@@H]2CCOc3ccc(C(=O)NC4c5c(OC)cccc5OCC4(C)O)cc32)C(=N)N1 (single isomer, unassigned) [Example 259B] | 24.2 |
| CCC1(CC)CC(=O)N([C@@H]2CCOc3ccc(C(=O)NC4c5c(OC)cccc5OCC4(C)O)cc32)C(=N)N1 (single isomer, unassigned) [Example 259C] | 3.6 |
| CCC1(CC)CC(=O)N([C@@H]2CCOc3ccc(C(=O)NC4c5c(OC)cccc5OCC4(C)O)cc32)C(=N)N1 (single isomer, unassigned) [Example 259D] | 10.6 |
